What follows are molecules tested on HEK293 cells (assay: HEK293 VLCFA-LPC IC50 determination (13C-labeled C26:0 LPC by UHPLC/MS)). Conditions: Homo sapiens, HEK293, 48 h, average of one or more replicates; 13C-labeled C26:0 LPC, 48 hours; read-out: Average HEK293 IC50.
Type: cell-based, human
Method in brief: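 Suspension HEK293 cells (final 0.5 million/mL after mixing with equal volume) incubated 48 hours with compound plus 13C-acetate (1.0 mg/mL in added media), shaking at 37° C. Lipids extracted with hexane/isopropanol or methanol, C13:0 LPC standard. UHPLC/MS of 13C-labeled C26:0 LPC (638.500/104.100 m/z); IC50 by four-parameter fit.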
With `O=C(Nc1ccn(-c2cnc(C(F)(F)F)nc2)n1)C1(c2ccccc2F)CC1` [Compound 381, 1-(2-fluorophenyl)-N-[1-[2-(trifluoromethyl)pyrimidin-5-yl]pyrazol-3-yl]cyclopropanecarboxamide] the IC50 was over 5000 nM.
With `CC(C)(O)c1ncc(-n2ccc(NC(=O)C3(c4ccccc4F)CC3)n2)cc1F` [Compound 354, N-[1-[5-fluoro-6-(1-hydroxy-1-methyl-ethyl)-3-pyridyl]pyrazol-3-yl]-1-(2-fluorophenyl)cyclopropanecarboxamide] the IC50 was over 5000 nM.
In the case of `CC(C)(O)c1ncc(-n2ccc(NC(=O)C3(c4ccccc4F)CC3)n2)cn1` [Compound 382, 1-(2-fluorophenyl)-N-[1-[2-(1-hydroxy-1-methyl-ethyl)pyrimidin-5-yl]pyrazol-3-yl]cyclopropanecarboxamide], the IC50 is reported as over 5000 nM.
`O=C(Nc1ccn(-c2ccnc(F)c2)n1)C1(c2ccccc2)CC1(Cl)Cl` (single isomer, unassigned) [Compound 370] gave an IC50 of 170 nM.
In the case of `COc1ncccc1-n1ccc(NC(=O)C2(c3ccccc3F)CC2)n1` [Compound 317, 1-(2-fluorophenyl)-N-[1-(2-methoxy-3-pyridyl)pyrazol-3-yl]cyclopropanecarboxamide], the IC50 is reported as over 5000 nM.
`O=C(Nc1ccn(-c2ccccc2)n1)C1(c2ccccc2)CC1(F)F` (single isomer, unassigned) [Compound 366] gave an IC50 of 210 nM.
`O=C(Nc1ccn(-c2ccnc(F)c2)n1)C1(c2ccccc2)CC1(Cl)Cl` (single isomer, unassigned) [Compound 371] gave an IC50 of 720 nM.
`O=C(Nc1ccn(-c2ccc(C(F)(F)F)nc2)n1)C1(c2ccccc2F)CC1` [Compound 315, 1-(2-fluorophenyl)-N-(1-(6-(trifluoromethyl)pyridin-3-yl)-1H-pyrazol-3-yl)cyclopropane-1-carboxamide] showed an IC50 of over 5000 nM.

Same assay, conditions: Homo sapiens, HEK293, HEK293 cells; average of one or more replicates; read-out: Average HEK293 IC50
`O=C(Cc1ccccc1F)Nc1ccn(-c2ccnc(C(F)(F)F)c2)n1` [Compound 122, 2-(2-fluorophenyl)-N-[1-[2-(trifluoromethyl)-4-pyridyl]pyrazol-3-yl]acetamide] gave an IC50 of 1600 nM.
`Cc1ccc(C(C)C(=O)Nc2ccn(-c3ccccc3)n2)cc1` (stereo not drawn) [Compound 77, N-(1-phenylpyrazol-3-yl)-2-(p-tolyl)propanamide] gave an IC50 of 3300 nM.
Work on `O=C(Cc1ccccc1F)Nc1ccn(-c2ccccn2)n1` [Compound 211, 2-(2-fluorophenyl)-N-[1-(2-pyridyl)pyrazol-3-yl]acetamide] yielded an IC50 of 1700 nM.
`O=C(Nc1ccn(-c2cncc(Cl)c2)n1)C1(c2ncccn2)CC1` [Compound 530, N-[1-(5-chloro-3-pyridyl)pyrazol-3-yl]-1-pyrimidin-2-yl-cyclopropanecarboxamide] gave an IC50 of over 5000 nM.
`O=C(Nc1ccn(-c2ncccc2Cl)n1)C1(c2ncccc2F)CC1` [Compound 453] was tested, and the IC50 was over 5000 nM.
`O=C(Cc1ccccc1F)Nc1ccn(-c2cnccn2)n1` [Compound 216, 2-(2-fluorophenyl)-N-(1-pyrazin-2-ylpyrazol-3-yl)acetamide] gave an IC50 of over 5000 nM.
For `O=C(Cc1ccc(F)cc1)Nc1ccn(-c2nccs2)n1` [Compound 91, 2-(4-fluorophenyl)-N-(1-thiazol-2-ylpyrazol-3-yl)acetamide], the IC50 was 1900 nM.
In the case of `O=C(Nc1ccn(-c2cncc(Cl)c2)n1)C1(c2ncccc2F)CC1` [Compound 455, N-[1-(5-chloro-3-pyridyl)pyrazol-3-yl]-1-(3-fluoro-2-pyridyl)cyclopropanecarboxamide], the IC50 is reported as 100 nM.
With `O=C(Nc1ccn(-c2cnccn2)n1)C1(c2ccccc2)CC1` [Compound 233, 1-phenyl-N-(1-pyrazin-2-ylpyrazol-3-yl)cyclopropanecarboxamide] the IC50 was 1500 nM.
`O=C(Cc1cc(F)c(F)c(F)c1)Nc1ccn(-c2ccccc2)n1` [Compound 17, N-(1-phenylpyrazol-3-yl)-2-(3,4,5-trifluorophenyl)acetamide] gave an IC50 of over 5000 nM.
With `O=C(Nc1ccn(-c2ccccn2)n1)C1(c2ccccc2)CC1` [Compound 212, 1-phenyl-N-[1-(2-pyridyl)pyrazol-3-yl]cyclopropanecarboxamide] the IC50 was 190 nM.
Work on `COc1ccc(-n2ccc(NC(=O)C3(c4ccccc4F)CC3)n2)c(OC)c1` [Compound 428] yielded an IC50 of over 5000 nM.
In the case of `O=C(Nc1ccn(-c2cccnn2)n1)C1(c2ncccc2F)CC1` [Compound 458, 1-(3-fluoro-2-pyridyl)-N-(1-pyridazin-3-ylpyrazol-3-yl)cyclopropanecarboxamide], the IC50 is reported as 940 nM.
`O=C(Cc1ccccc1F)Nc1ccn(-c2ccc(Cl)nc2)n1` [Compound 104, N-[1-(6-chloro-3-pyridyl)pyrazol-3-yl]-2-(2-fluorophenyl)acetamide] gave an IC50 of 320 nM.
`O=C(Nc1ccn(-c2ccccc2)n1)[C@@]1(c2ccccc2)CC12CCC2` [Compound 146, (2S)-2-phenyl-N-(1-phenylpyrazol-3-yl)spiro[2.3]hexane-2-carboxamide] was tested, and the IC50 was 87 nM.
With `CC1(C)CC1(C(=O)Nc1ccn(-c2ccnc(F)c2)n1)c1ccccc1` (stereo not drawn) [Compound 165, N-[1-(2-fluoro-4-pyridyl)pyrazol-3-yl]-2,2-dimethyl-1-phenyl-cyclopropanecarboxamide] the IC50 was 50 nM.
Molecule `O=C(Nc1ccn(-c2ccnc(F)c2)n1)C1(c2ccccc2)CCCCC1` [Compound 148, N-[1-(2-fluoro-4-pyridyl)pyrazol-3-yl]-1-phenyl-cyclohexanecarboxamide] has an IC50 of over 5000 nM.
For `O=C(Nc1ccn(-c2cncc(OC(F)F)c2)n1)C1(c2cccs2)CC1` [Compound 484, N-[1-[5-(difluoromethoxy)-3-pyridyl]pyrazol-3-yl]-1-(2-thienyl)cyclopropanecarboxamide], the IC50 was over 5000 nM.
With `O=C(Cc1ccccc1)Nc1ccn(-c2ccncc2F)n1` [Compound 140, N-[1-(3-fluoro-4-pyridyl)pyrazol-3-yl]-2-phenyl-acetamide] the IC50 was 1100 nM.
`CC(C)(C(=O)Nc1ccn(-c2ccccc2)n1)c1ccccn1` [Compound 476, 2-methyl-N-(1-phenylpyrazol-3-yl)-2-(2-pyridyl)propanamide] gave an IC50 of 530 nM.
With `N#Cc1ccc(C2(C(=O)Nc3ccn(-c4ccccc4)n3)CC2)cc1` [Compound 227, 1-(4-cyanophenyl)-N-(1-phenylpyrazol-3-yl)cyclopropanecarboxamide] the IC50 was 290 nM.
With `CCC1(C)CC1(C(=O)Nc1ccn(-c2ccnc(F)c2)n1)c1ccccc1` (stereo not drawn) [Compound 168, 2-ethyl-N-[1-(2-fluoro-4-pyridyl)pyrazol-3-yl]-2-methyl-1-phenyl-cyclopropanecarboxamide] the IC50 was 86 nM.
`O=C(Nc1ccn(-c2ccc(F)cc2)n1)C1(c2ncccc2F)CC1` [Compound 456, N-[1-(4-fluorophenyl)pyrazol-3-yl]-1-(3-fluoro-2-pyridyl)cyclopropanecarboxamide] showed an IC50 of 100 nM.
`O=C(Cc1ccccc1OC(F)(F)F)Nc1ccn(-c2ccccc2)n1` [Compound 54, N-(1-phenylpyrazol-3-yl)-2-[2-(trifluoromethoxy)phenyl]acetamide] gave an IC50 of over 5000 nM.
`Cn1ccc(-n2ccc(NC(=O)C3(c4ccccc4)CC3)n2)n1` [Compound 231, N-[1-(1-methylpyrazol-3-yl)pyrazol-3-yl]-1-phenyl-cyclopropanecarboxamide] gave an IC50 of over 5000 nM.
In the case of `O=C(Nc1ccn(-c2ccc(C(F)F)nc2)n1)C1(c2ccccc2F)CC1` [Compound 397, N-[1-[6-(difluoromethyl)-3-pyridyl]pyrazol-3-yl]-1-(2-fluorophenyl)cyclopropanecarboxamide], the IC50 is reported as over 5000 nM.
Molecule `CCCC(C(=O)Nc1ccn(-c2ccnc(F)c2)n1)c1ccccc1` (stereo not drawn) [Compound 173, N-(1-(2-fluoropyridin-4-yl)-1H-pyrazol-3-yl)-2-phenylpentanamide] has an IC50 of 72 nM.
`Cc1cc(NC(=O)C2(c3ncccc3F)CC2(C)C)nn1-c1ccc(F)cc1F` (stereo not drawn) [Compound 515, N-[1-(2,4-difluorophenyl)-5-methyl-pyrazol-3-yl]-1-(3-fluoro-2-pyridyl)-2,2-dimethyl-cyclopropanecarboxamide] showed an IC50 of over 5000 nM.
`O=C(Cc1ccccc1)Nc1ccn(-c2cncnc2)n1` [Compound 96, 2-phenyl-N-(1-pyrimidin-5-ylpyrazol-3-yl)acetamide] gave an IC50 of 2400 nM.
Molecule `O=C(Nc1ccn(-c2ccccc2)n1)C1(c2cnccn2)CC1` [Compound 477, N-(1-phenylpyrazol-3-yl)-1-pyrazin-2-yl-cyclopropanecarboxamide] has an IC50 of 1500 nM.
`O=C(Cc1ccccc1F)Nc1ccn(-c2ncccc2F)n1` [Compound 94, 2-(2-fluorophenyl)-N-[1-(3-fluoro-2-pyridyl)pyrazol-3-yl]acetamide] showed an IC50 of over 10000 nM.
For `CC1(C)CC1(C(=O)Nc1ccn(-c2cncc(Cl)c2)n1)c1ncccc1F` (stereo not drawn) [Compound 512, N-[1-(5-chloro-3-pyridyl)pyrazol-3-yl]-1-(3-fluoro-2-pyridyl)-2,2-dimethyl-cyclopropanecarboxamide], the IC50 was 1100 nM.
`Cc1ccc(CC(=O)Nc2ccn(-c3ccccc3)n2)cc1` [Compound 42, N-(1-phenylpyrazol-3-yl)-2-(p-tolyl)acetamide] showed an IC50 of 710 nM.
Molecule `O=C(Nc1ccn(-c2ccc(F)c(Cl)c2)n1)C1(c2ccccc2F)CC1` [Compound 198, N-[1-(3-chloro-4-fluoro-phenyl)pyrazol-3-yl]-1-(2-fluorophenyl)cyclopropanecarboxamide] has an IC50 of 720 nM.
`O=C(Cc1ccc(F)cc1)Nc1ccn(-c2ccccc2)n1` [Compound 16, 2-(4-fluorophenyl)-N-(1-phenylpyrazol-3-yl)acetamide] gave an IC50 of 330 nM.
With `COc1cccc(C2(C(=O)Nc3ccn(-c4ccccc4)n3)CC2)c1` [Compound 26, 1-(3-methoxyphenyl)-N-(1-phenylpyrazol-3-yl)cyclopropanecarboxamide] the IC50 was 270 nM.
`O=C(Nc1ccn(-c2ccccc2)n1)C1(c2ccc3c(c2)OC(F)(F)O3)CC1` [Compound 292, 1-(2,2-difluoro-1,3-benzodioxo1-5-yl)-N-(1-phenylpyrazol-3-yl)cyclopropanecarboxamide] was tested, and the IC50 was 85 nM.
